According to patent US20260242336A1, “COMPOSITION FOR PREVENTING OR TREATING CANCER DISEASES COMPRISING ARYL-PIPERIDINE DERIVATIVE” (KOREA RESEARCH INSTITUTE OF CHEMICAL TECHNOLOGY, priority 2023, published 2026):
Where a name gives a salt, the structure may show the parent alone. Blank lines part the entries; values can stand above or below the compound they belong to.

Key:
[1] = target: PARP-2 (Homo sapiens, UniProt Q9UGN5); assay: PARP-2 enzymatic activity inhibition; type: biochemical
[2] = target: T1, TNKS-1 (Homo sapiens, UniProt O95271); assay: TNKS1 Histone Ribosylation Colorimetric Assay Kit (tankyrase-1 colorimetric activity assay); type: biochemical; details: for inhibition at 10 µM: read-out: TNKS-1 inhibitory activity (10 μM), 10 μM compound
T1 construct: purchased BPS Bioscience 80582
T1 sequence (O95271 1-1327): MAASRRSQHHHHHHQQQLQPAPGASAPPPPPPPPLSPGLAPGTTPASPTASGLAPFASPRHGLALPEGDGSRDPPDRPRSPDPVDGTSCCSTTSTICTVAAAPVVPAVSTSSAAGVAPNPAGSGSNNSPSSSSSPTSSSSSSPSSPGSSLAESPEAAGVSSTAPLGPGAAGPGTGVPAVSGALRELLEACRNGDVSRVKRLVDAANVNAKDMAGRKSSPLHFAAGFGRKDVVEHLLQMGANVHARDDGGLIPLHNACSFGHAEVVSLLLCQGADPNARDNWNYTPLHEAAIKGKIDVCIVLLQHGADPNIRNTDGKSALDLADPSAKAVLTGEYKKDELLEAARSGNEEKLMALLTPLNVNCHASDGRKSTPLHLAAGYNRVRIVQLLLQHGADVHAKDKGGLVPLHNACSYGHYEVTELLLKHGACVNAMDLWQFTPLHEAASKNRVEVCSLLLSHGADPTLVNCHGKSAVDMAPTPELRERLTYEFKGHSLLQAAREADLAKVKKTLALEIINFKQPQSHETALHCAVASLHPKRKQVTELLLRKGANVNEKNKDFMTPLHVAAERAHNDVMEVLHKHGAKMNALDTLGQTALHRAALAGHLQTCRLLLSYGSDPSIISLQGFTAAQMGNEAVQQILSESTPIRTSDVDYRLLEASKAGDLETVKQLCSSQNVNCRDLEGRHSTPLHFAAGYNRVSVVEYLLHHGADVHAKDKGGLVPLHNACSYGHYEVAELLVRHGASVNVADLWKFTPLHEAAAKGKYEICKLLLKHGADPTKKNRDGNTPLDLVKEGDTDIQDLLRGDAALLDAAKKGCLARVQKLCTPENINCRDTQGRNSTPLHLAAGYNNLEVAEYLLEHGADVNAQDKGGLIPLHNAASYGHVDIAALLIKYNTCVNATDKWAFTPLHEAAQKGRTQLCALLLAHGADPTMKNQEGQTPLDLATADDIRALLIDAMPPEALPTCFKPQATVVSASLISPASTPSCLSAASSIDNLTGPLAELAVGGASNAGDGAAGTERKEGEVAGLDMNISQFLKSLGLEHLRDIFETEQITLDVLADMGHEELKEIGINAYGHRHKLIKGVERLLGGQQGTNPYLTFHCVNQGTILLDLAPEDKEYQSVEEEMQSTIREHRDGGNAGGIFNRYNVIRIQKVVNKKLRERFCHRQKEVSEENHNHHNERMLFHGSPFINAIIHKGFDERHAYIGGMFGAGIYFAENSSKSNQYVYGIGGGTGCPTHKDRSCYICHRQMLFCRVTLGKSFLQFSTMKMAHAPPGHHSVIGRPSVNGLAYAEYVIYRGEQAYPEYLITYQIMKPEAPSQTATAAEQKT

[3] = system: activated beta-catenin proteins; assay: Western blotting of activated beta-catenin protein in colon cancer cell lines; type: cell-based, human; details: COLO320DM and SW403, 10 μM, 24 hours
From the text: (§1) After protein extraction, proteins were quantified through Western blotting (Bio-Rad, USA).

[4] = system: colon cancer cell line COLO320DM; assay: Cell viability by colony counting (methylene blue staining); details: 10 days; for cell viability (in words): 2.5 μM to 40 μM; for cell viability inhibited: 40 μM
[5] = system: AXIN2 protein; assay: Western blotting of AXIN2 protein in colon cancer cell lines; type: cell-based, human; details: COLO320DM and SW403, 10 μM, 24 hours
From the text: as §1

[6] = target: T2, TNKS-2 (Homo sapiens, UniProt Q9H2K2); assay: TNKS-2 enzymatic activity inhibition; type: biochemical
T2 sequence (Q9H2K2 1-1166): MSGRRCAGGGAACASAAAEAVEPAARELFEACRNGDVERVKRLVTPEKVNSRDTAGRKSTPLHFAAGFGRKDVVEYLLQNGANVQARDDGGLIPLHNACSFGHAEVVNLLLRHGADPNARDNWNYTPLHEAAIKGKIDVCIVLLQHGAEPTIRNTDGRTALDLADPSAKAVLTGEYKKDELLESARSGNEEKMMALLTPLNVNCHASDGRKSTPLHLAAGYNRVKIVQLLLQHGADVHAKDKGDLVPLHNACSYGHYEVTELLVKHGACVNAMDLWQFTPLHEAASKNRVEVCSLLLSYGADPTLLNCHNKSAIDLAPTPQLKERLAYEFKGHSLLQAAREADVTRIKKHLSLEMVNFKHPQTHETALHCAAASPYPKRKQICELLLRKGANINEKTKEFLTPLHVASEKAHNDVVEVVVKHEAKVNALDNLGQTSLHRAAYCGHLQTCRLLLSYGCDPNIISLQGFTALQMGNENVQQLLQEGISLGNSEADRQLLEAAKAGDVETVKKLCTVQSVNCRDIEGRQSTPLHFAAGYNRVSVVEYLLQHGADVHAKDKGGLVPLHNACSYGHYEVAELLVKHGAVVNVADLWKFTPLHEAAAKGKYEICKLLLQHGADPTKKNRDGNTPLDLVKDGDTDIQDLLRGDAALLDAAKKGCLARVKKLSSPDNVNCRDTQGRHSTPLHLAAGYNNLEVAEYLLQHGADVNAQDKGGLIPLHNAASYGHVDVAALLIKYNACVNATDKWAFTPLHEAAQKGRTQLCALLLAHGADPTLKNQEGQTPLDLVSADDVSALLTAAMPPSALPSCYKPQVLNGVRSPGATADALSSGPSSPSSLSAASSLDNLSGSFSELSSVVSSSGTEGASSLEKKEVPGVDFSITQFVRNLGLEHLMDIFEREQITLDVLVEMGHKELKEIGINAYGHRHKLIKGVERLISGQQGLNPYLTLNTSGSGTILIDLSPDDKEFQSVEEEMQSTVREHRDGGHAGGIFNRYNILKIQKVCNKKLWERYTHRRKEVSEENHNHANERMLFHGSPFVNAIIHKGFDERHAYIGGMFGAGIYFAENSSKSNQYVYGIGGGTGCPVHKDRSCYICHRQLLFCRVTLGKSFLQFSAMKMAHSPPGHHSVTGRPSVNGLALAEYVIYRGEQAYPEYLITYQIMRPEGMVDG

[7] = target: T3, PARP-1 (Homo sapiens, UniProt P09874); assay: PARP-1 colorimetric activity assay kit; type: biochemical; details: for inhibition of enzymatic activity of PARP-1 (in words): 1 μM
T3 construct: purchased BPS Bioscience 80580

[8] = system: beta-catenin transcriptional activity; assay: TCF/luciferase assay of beta-catenin transcriptional activity in HEK cells; type: cell-based; details: Homo sapiens, HEK293, read-out: β-catenin IC50 in HEK cells
Procedure: To determine whether beta-catenin transcriptional activity is inhibited by the aryl-piperidine derivative compounds, compounds TI-61815 and TI-61910 were treated at various concentrations and examined in HEK cells using the TCF/luciferase assay system.

[9] = system: colon cancer cell line COLO320DM; assay: Cell viability by colony counting after co-treatment with 5-FU; type: cell-based; details: Homo sapiens, COLO 320DM, 240 h, 10 days, read-out: cell viability inhibited when co-treated with 5-FU, compared to the sole treatment; for cytotoxicity at 5 µM: 5 μM compound + 0.5 μM 5-FU; for cytotoxicity at 10 µM: 10 μM compound + 0.5 μM 5-FU
Procedure: Each cell line was purchased from the American Type Culture Collection (ATCC) and cultured respectively in RPMI 1640 (Roswell Park Memorial Institute 1640) medium supplemented with 10% fetal bovine serum (FBS), 100 μg/ml streptomycin, and 100 units/ml penicillin in the presence of 5% CO2 at 37° C.
Afterwards, the cell viability was identified by counting the number of colonies by staining with 1.5% methylene blue.

[10] = system: beta-catenin subgenes (AXIN2, CCND1, cMYC, FGF20); assay: Real-time PCR of beta-catenin subgene expression; type: cell-based, human; details: COLO320DM, 10 μM, 24 hours
From the text: After RNA extraction, cDNA was synthesized to quantify gene expression via real-time PCR.

T3 sequence (P09874 whole entry): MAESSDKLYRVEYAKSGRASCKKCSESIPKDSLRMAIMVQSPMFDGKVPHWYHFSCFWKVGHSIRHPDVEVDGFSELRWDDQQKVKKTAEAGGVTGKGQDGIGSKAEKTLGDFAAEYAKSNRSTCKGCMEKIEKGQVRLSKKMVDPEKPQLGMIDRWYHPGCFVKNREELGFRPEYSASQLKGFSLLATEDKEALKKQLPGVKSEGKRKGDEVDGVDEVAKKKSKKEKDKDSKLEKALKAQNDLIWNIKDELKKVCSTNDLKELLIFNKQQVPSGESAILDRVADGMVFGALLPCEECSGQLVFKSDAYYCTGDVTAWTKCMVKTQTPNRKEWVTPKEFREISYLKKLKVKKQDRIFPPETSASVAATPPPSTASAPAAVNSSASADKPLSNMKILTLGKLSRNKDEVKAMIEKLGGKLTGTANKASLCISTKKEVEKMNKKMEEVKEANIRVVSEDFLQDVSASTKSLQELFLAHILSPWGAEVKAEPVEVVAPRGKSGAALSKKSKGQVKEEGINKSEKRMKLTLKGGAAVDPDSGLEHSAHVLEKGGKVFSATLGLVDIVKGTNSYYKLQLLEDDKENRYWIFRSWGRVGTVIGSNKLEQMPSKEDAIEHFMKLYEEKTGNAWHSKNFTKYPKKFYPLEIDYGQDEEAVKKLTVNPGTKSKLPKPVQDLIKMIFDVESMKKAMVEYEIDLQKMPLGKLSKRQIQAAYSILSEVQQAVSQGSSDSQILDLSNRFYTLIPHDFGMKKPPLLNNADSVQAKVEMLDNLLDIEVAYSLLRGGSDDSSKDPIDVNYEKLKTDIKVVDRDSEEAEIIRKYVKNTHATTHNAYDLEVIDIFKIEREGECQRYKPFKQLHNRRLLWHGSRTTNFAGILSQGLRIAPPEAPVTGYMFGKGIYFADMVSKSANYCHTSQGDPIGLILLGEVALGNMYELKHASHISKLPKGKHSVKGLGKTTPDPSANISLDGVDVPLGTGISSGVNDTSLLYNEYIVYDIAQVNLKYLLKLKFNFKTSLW
Chain of PARP-2 (Q9UGN5 whole entry): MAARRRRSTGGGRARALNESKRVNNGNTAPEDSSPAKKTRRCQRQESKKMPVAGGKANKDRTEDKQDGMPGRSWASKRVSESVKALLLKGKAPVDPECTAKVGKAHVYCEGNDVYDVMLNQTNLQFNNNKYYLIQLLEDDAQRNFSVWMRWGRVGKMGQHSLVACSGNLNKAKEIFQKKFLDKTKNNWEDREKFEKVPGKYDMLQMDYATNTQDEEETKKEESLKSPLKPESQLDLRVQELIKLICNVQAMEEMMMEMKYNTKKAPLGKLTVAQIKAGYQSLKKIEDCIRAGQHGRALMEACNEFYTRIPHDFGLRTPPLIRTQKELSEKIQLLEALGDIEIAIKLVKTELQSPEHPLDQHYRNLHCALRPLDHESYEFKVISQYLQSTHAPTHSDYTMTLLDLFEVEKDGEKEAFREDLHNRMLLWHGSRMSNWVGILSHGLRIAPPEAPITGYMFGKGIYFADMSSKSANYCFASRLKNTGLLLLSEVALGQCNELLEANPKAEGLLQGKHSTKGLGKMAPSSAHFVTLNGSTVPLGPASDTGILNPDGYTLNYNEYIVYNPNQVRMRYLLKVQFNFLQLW

inhibition at 10 µM [2]: 17 ± 1.5%
SMILES: N#Cc1ccccc1N1CCC(CCC(=O)Nc2cnc3cccnn23)CC1 [TI-62121, 3-(1-(2-cyanophenyl)piperidin-4-yl)-N-(imidazo[1,2-b]pyridazin-3-yl)propanamide]

inhibition at 10 µM [2]: 99 ± 0.1%
SMILES: N#Cc1ccccc1N1CCC(CCCC(=O)Nc2nnc3ccccn23)CC1 [TI-62116, N-([1,2,4]triazolo[4,3-a]pyridin-3-yl)-4-(1-(2-cyanophenyl)piperidin-4-yl)butanamide]

inhibition at 10 µM [2]: 1 ± 1.7%
SMILES: N#Cc1ccccc1N1CCC(CCC(=O)Nc2cccc3[nH]ccc23)CC1 [TI-62126]

inhibition at 10 µM [2]: 98 ± 0.1%
SMILES: CN(CC(=O)Nc1nnc2ccccn12)C1CCN(c2ccccc2C#N)CC1 [TI-62199, N-([1,2,4]triazolo[4,3-a]pyridin-3-yl)-2-((1-(2-cyanophenyl)piperidin-4-yl)(methyl)amino)acetamide]

inhibition at 10 µM [2]: 5 ± 1.2%
SMILES: N#Cc1ccccc1N1CCC(CC(=O)Nc2cnc3cccnn23)CC1 [TI-61816, 2-(1-(2-cyanophenyl)piperidin-4-yl)-N-(imidazo[1,2-b]pyridazin-3-yl)acetamide]

inhibition at 10 µM [2]: 10 ± 0.9%
SMILES: N#Cc1ccccc1N1CCC(CCC(=O)Nc2cnc3ccccn23)CC1 [TI-62122, 3-(1-(2-cyanophenyl)piperidin-4-yl)-N-(imidazo[1,2-a]pyridin-3-yl)propanamid]

inhibition at 10 µM [2]: 72 ± 0.3%
SMILES: N#Cc1ccccc1N1CCC(NCC(=O)Nc2nnc3ccccn23)CC1 [TI-62198, N-([1,2,4]triazolo[4,3-a]pyridin-3-yl)-2-((1-(2-cyanophenyl)piperidin-4-yl)amino)acetamide trifluoroacetic acid salt]

More lines, now with the values behind:

SMILES: N#Cc1ccccc1N1CCC(CCC(=O)Nc2nnc3ccccn23)CC1 [TI-61910, N-([1,2,4]triazolo[4,3-a]pyridin-3-yl)-3-(1-(2-cyanophenyl)piperidin-4-yl)propanamide]
IC50 [1]: > 10000 nM
IC50 [2]: 18 nM
inhibition at 10 µM [2]: ≥ 95%
levels of the activated beta-catenin proteins [3]: inhibited levels of the activated beta-catenin proteins
cell viability (in words) [4]: decreased in a concentration-dependent manner
cell viability inhibited [4]: 60.8%
AXIN2 protein levels [5]: stabilization of AXIN2 protein levels
IC50 [6]: 4 nM
IC50 [7]: > 10000 nM
inhibition of enzymatic activity of PARP-1 (in words) [7]: almost no decrease in the inhibition of enzymatic activity of PARP-1
IC50 [8]: 490 nM
cytotoxicity at 2.5 µM ([9]; 2.5 μM compound + 0.5 μM 5-FU): 26%
cytotoxicity at 5 µM [9]: 28.3%
cytotoxicity at 10 µM [9]: 35.5%
expression levels of beta-catenin subgenes (AXIN2, CCND1, cMYC, FGF20) [10]: inhibited the expression levels of beta-catenin subgenes

SMILES: O=C(CCC1CCN(c2ccc([N+](=O)[O-])cc2)CC1)Nc1nnc2ccccn12 [TI-62190]
inhibition at 10 µM [2]: 96 ± 0.2%

SMILES: N#Cc1ccccc1N1CCC(CC(=O)Nc2nnc3ccccn23)CC1 [TI-61815, N-([1,2,4]triazolo[4,3-a]pyridin-3-yl)-2-(1-(2-cyanophenyl)piperidin-4-yl)acetamide]
IC50 [1]: 6060 nM
IC50 [2]: 64 nM
inhibition at 10 µM [2]: ≥ 95%
levels of the activated beta-catenin proteins [3]: inhibited levels of the activated beta-catenin proteins
cell viability (in words) [4]: decreased in a concentration-dependent manner
cell viability inhibited [4]: 61.4%
AXIN2 protein levels [5]: stabilization of AXIN2 protein levels
IC50 [6]: 49 nM
IC50 [7]: 7540 nM
inhibition of enzymatic activity of PARP-1 (in words) [7]: almost no decrease in the inhibition of enzymatic activity of PARP-1
IC50 [8]: 830 nM
cytotoxicity at 5 µM [9]: 12.4%
cytotoxicity at 10 µM [9]: 27.8%
expression levels of beta-catenin subgenes (AXIN2, CCND1, cMYC, FGF20) [10]: inhibited the expression levels of beta-catenin subgenes

SMILES: O=C(CCC1CCN(c2ccc([N+](=O)[O-])cc2[N+](=O)[O-])CC1)Nc1nnc2ccccn12 [TI-62195]
inhibition at 10 µM [2]: ≥ 95%

SMILES: CC(C)(C)OC(=O)N(CC(=O)Nc1nnc2ccccn12)C1CCN(c2ccccc2C#N)CC1 [TI-62197, tert-Butyl(2-([1,2,4]triazolo[4,3-a]pyridin-3-ylamino)-2-oxoethyl)(1-(2-cyanophenyl)piperidin-4-yl) carbamate]
inhibition at 10 µM [2]: 3 ± 0.9%

SMILES: O=C(CCC1CCN(c2ccccc2[N+](=O)[O-])CC1)Nc1nnc2ccccn12 [TI-62188, N-([1,2,4]triazolo[4,3-a]pyridin-3-yl)-3-(1-(2-nitrophenyl)piperidin-4-yl)propanamide]
inhibition at 10 µM [2]: ≥ 95%

SMILES: O=C(CCC1CCN(c2cccc([N+](=O)[O-])c2)CC1)Nc1nnc2ccccn12 [TI-62189]
inhibition at 10 µM [2]: 100%

SMILES: N#Cc1ccc(N2CCC(CCC(=O)Nc3nnc4ccccn34)CC2)cc1 [TI-62194]
inhibition at 10 µM [2]: 100%
